The results in this text go back to PubChem BioAssay (NCI).

Some test systems named below: M14 melanoma; UO-31 renal; A498 renal; U251 CNS; T-47D breast; 786-0 renal; HS 578T breast; ACHN renal; M19-MEL melanoma; DMS 114 small cell lung.
What all share (assay): growth of human tumour cells (NCI), 48 h

“And” between values parts separate entries of the source, which are not always exact repeats. Identical values can stand only once.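 Cells were grown in 96-well plates and exposed to each compound for 48 hours at five concentrations; endpoints were interpolated linearly between bracketing concentrations, or set to the highest concentration if not reached. GI50 = concentration required for 50% inhibition of growth. TGI: total growth inhibition.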

Regarding `COc1cc(CNc2oc(-c3ccccc3)c(-c3ccccc3)c2C#N)cc(CN2CCN(C)CC2)c1O`, the GI50 in the experiment with M14 melanoma is 1.78 µM; in the experiment with UO-31 renal it was 1.23 µM; in the experiment with A498 renal it was 1.55 µM; in the experiment on U251 CNS, 1.76 µM; in the experiment with T-47D breast, 1.91 µM; in the experiment on 786-0 renal it was 1.68 µM. The figures for the GI50 in the experiment on HS 578T breast and in the experiment with ACHN renal were 2.26 µM and 1.8 µM, respectively. The TGI in the experiment on M14 melanoma turned out to be 3.65 µM; in the experiment with UO-31 renal it was 2.62 µM; in the experiment on A498 renal, 3.48 µM; with U251 CNS, 3.58 µM; with T-47D breast, 4.17 µM; in the experiment on 786-0 renal, 3.21 µM. Also, the values for the TGI in the experiment with HS 578T breast and in the experiment on ACHN renal were 6.61 µM and 3.19 µM, respectively.

As to `COc1cc2nccc(Oc3ccc(NC(=O)c4cn(C(C)C)c(=O)n(-c5ccc(F)cc5)c4=O)cc3F)c2cc1OC`, the GI50 in the experiment with M14 melanoma was 63.3 µM; in the experiment with UO-31 renal it was 3.65 µM; with A498 renal, 1.64 µM; with U251 CNS, greater than 100 µM; with T-47D breast it was 3.23 µM; in the experiment on 786-0 renal it was greater than 100 µM. The GI50 in the experiment with HS 578T breast is 2.64 µM; in the experiment on ACHN renal it was 2.69 µM. The TGI with M14 melanoma was greater than 100 µM; in the experiment with UO-31 renal, greater than 40 µM; in the experiment with A498 renal, 6.27 µM; in the experiment with U251 CNS, greater than 100 µM; in the experiment with T-47D breast, 34.4 µM; in the experiment on 786-0 renal, greater than 100 µM. The TGI is 89.2 µM in the experiment with HS 578T breast and greater than 26.3 µM with ACHN renal.

For `CCC1=C(CC2NCCc3ccccc32)CC2c3cc(OC)c(OC)cc3CCN2C1` (stereo not drawn), the GI50 was 4.53 µM with M14 melanoma; 4.73 µM in the experiment with UO-31 renal; 4.25 µM in the experiment with A498 renal; 4.8 µM in the experiment on U251 CNS; 3.9 µM in the experiment on T-47D breast; 4.04 µM with 786-0 renal. Further, the GI50 with HS 578T breast was 3.07 µM; in the experiment on ACHN renal, 3.96 µM. Moreover, the TGI with M14 melanoma was 16 µM and 3.49 µM; in the experiment with UO-31 renal, 29.7 µM and 3.35 µM; in the experiment with A498 renal, 19.6 µM and 5.8 µM; with U251 CNS it was 16.4 µM and 2.77 µM; in the experiment with T-47D breast, 16.8 µM and 5.85 µM; with 786-0 renal, 17.1 µM and 2.9 µM. The TGI in the experiment with HS 578T breast is 12.8 µM and 3.73 µM; in the experiment on ACHN renal, 37.6 µM and 3.9 µM; in the experiment with M19-MEL melanoma it was 29.5 µM.

Consider `COC(=O)[C@H](Cc1cn(C)cn1)NC(=O)[C@H](Cc1ccccc1)NC(=O)Nc1cc(C(F)(F)F)cc(C(F)(F)F)c1`, for which the GI50 in the experiment with M14 melanoma is 13.5 µM; with UO-31 renal, 16.6 µM; in the experiment with A498 renal, 15.8 µM; with U251 CNS, 11.9 µM; in the experiment on T-47D breast, 3.54 µM and 8.29 µM; with 786-0 renal, 16.8 µM. The GI50 was 15.1 µM in the experiment on HS 578T breast and 17.2 µM in the experiment with ACHN renal. Further, the TGI was found to be 28.5 µM in the experiment with M14 melanoma; 30.5 µM with UO-31 renal; 30.1 µM in the experiment on A498 renal; 24.6 µM with U251 CNS; 27 µM in the experiment with T-47D breast; 31.9 µM in the experiment on 786-0 renal. In addition, the TGI with HS 578T breast stood at 45.1 µM; with ACHN renal, 33.4 µM.

For `C=C1C(=O)O[C@H]2C[C@@H]1C(=O)CC(C)CCCC(C)=CCC[C@@]2(C)O` (stereo partly drawn), the TGI in the experiment with M14 melanoma, in the experiment on UO-31 renal, with A498 renal, in the experiment on U251 CNS, in the experiment with T-47D breast and with 786-0 renal was greater than 25 µM throughout. Further, the TGI in the experiment with HS 578T breast and in the experiment with ACHN renal was greater than 25 µM throughout.

On to `N#Cc1cc(S(=O)(=O)Nc2nc3ccccc3o2)c(SCc2ccccc2)cc1Cl`, for which the GI50 is 25.4 µM with M14 melanoma; 20.4 µM in the experiment with UO-31 renal; 21.3 µM with A498 renal; 18.9 µM in the experiment with U251 CNS; 23.7 µM with T-47D breast; 21.8 µM in the experiment with 786-0 renal. The GI50 with HS 578T breast was 25.4 µM; in the experiment with ACHN renal, 32.6 µM. Moreover, the TGI with M14 melanoma was 52.7 µM; in the experiment with UO-31 renal, 39.2 µM; in the experiment on A498 renal, 43.7 µM; in the experiment on U251 CNS, 34 µM; in the experiment on T-47D breast, 80.9 µM; in the experiment with 786-0 renal, 45.2 µM. The TGI with HS 578T breast is 62 µM; in the experiment with ACHN renal, greater than 100 µM.

Turning to `CCn1c2ccccc2c2cc(C(=O)c3ccc(C)c4ccccc34)ccc21`, the GI50 is 0.276 µM in the experiment with M14 melanoma; 0.716 µM with UO-31 renal; 0.282 µM in the experiment with A498 renal; 0.278 µM in the experiment with U251 CNS; 0.76 µM with T-47D breast; 0.426 µM in the experiment with 786-0 renal. Further, the GI50 in the experiment with HS 578T breast was 0.756 µM; with ACHN renal, 0.729 µM. Further, the TGI in the experiment on M14 melanoma is 1.42 µM; with UO-31 renal, greater than 100 µM; in the experiment with A498 renal, 1.15 µM; in the experiment on U251 CNS, 1.52 µM; in the experiment on T-47D breast, greater than 100 µM; in the experiment with 786-0 renal it was greater than 100 µM. Also, the TGI with HS 578T breast and in the experiment on ACHN renal was greater than 100 µM throughout.

With `COC(=O)N/N=C(\C)CC(=O)Nc1ccc(Cl)cc1`, the TGI in the experiment with M14 melanoma, in the experiment on DMS 114 small cell lung, in the experiment with UO-31 renal, in the experiment with A498 renal, in the experiment with U251 CNS and with 786-0 renal was greater than 100 µM throughout. In the experiment with M19-MEL melanoma, this compound gave a TGI greater than 100 µM.

In the case of `C=C(C)[C@@H]1CC[C@]2(C(=O)NS(=O)(=O)c3ccccc3)CC[C@]3(C)[C@H](CC[C@@H]4[C@@]5(C)CC[C@H](OC(=O)NS(=O)(=O)c6ccccc6)C(C)(C)[C@@H]5CC[C@]43C)[C@@H]12`, the GI50 is 1.99 µM in the experiment with M14 melanoma; 1.49 µM with UO-31 renal; 1.65 µM in the experiment on A498 renal; 1.46 µM in the experiment on U251 CNS; 1.74 µM in the experiment on T-47D breast; 2.42 µM in the experiment on 786-0 renal. Also, the results for the GI50 in the experiment on HS 578T breast and in the experiment on ACHN renal were 1.49 µM and 2.73 µM, respectively. Also, the TGI in the experiment with M14 melanoma was 6.89 µM; in the experiment on UO-31 renal it was 3.04 µM; in the experiment with A498 renal, 4.69 µM; with U251 CNS it was 5.96 µM; with T-47D breast, 7.37 µM; in the experiment on 786-0 renal, 6.93 µM. Moreover, the TGI was determined as 10.1 µM with HS 578T breast and 9 µM with ACHN renal.
